Reference: US12686673B2 (Blueprint Medicines Corporation, priority 2020, dated 2026)
Counter-ions that a name gives are not always drawn. Like-named read-outs stand apart in the source and are kept apart here.

Legend:
Format in all cases: cell-based
[1] = biological target: EGFR(D770_N771insSVD) expressing Ba/F3 stable cell line (Homo sapiens, UniProt P00533, DUP768-770, cells depend on it); test: Cellular proliferation (Alamar Blue) assay, EGFR D770_N771insSVD Ba/F3; details: 72 hr, read-out: D770 IC50
Method in brief: (§1)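 Seventy-two-hour compound exposure (3-fold series, final 10–0.0005 μM) of mutant EGFR/HER2 Ba/F3 cells plated at 15,000/well in RPMI with 10% FBS. Alamar Blue added for 3 h at 37 °C as proliferation read-out.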

[2] = biological target: EGFR (A767_dupASV) expressing Ba/F3 stable cell line (Homo sapiens, UniProt P00533, DUP767-769, cells depend on it); test: Cellular proliferation (Alamar Blue) assay, EGFR A767_dupASV Ba/F3; details: 72 hr, read-out: A767 IC50
Method in brief: as §1

A431 cells = test: Cellular proliferation (Alamar Blue) assay, A431
[3] = biological target: HER2 (A775_G776insYVMA) expressing Ba/F3 stable cell line (Homo sapiens, UniProt P04626, DUP772-775, cells depend on it); test: Cellular proliferation (Alamar Blue) assay, HER2 A775_G776insYVMA Ba/F3; details: 72 hr, read-out: YVMA IC50
Method in brief: as §1

[4] = Homo sapiens, A-431; A431 cells, Alamar Blue, 72 hr; read-out: A431 IC50
[5] = Homo sapiens, A-431; A431 cells, 72 hr, Alamar Blue; read-out: A431 IC50

Chain of EGFR(D770_N771insSVD) expressing Ba/F3 stable cell line (P00533 with tags, fused parts or gaps DUP768-770): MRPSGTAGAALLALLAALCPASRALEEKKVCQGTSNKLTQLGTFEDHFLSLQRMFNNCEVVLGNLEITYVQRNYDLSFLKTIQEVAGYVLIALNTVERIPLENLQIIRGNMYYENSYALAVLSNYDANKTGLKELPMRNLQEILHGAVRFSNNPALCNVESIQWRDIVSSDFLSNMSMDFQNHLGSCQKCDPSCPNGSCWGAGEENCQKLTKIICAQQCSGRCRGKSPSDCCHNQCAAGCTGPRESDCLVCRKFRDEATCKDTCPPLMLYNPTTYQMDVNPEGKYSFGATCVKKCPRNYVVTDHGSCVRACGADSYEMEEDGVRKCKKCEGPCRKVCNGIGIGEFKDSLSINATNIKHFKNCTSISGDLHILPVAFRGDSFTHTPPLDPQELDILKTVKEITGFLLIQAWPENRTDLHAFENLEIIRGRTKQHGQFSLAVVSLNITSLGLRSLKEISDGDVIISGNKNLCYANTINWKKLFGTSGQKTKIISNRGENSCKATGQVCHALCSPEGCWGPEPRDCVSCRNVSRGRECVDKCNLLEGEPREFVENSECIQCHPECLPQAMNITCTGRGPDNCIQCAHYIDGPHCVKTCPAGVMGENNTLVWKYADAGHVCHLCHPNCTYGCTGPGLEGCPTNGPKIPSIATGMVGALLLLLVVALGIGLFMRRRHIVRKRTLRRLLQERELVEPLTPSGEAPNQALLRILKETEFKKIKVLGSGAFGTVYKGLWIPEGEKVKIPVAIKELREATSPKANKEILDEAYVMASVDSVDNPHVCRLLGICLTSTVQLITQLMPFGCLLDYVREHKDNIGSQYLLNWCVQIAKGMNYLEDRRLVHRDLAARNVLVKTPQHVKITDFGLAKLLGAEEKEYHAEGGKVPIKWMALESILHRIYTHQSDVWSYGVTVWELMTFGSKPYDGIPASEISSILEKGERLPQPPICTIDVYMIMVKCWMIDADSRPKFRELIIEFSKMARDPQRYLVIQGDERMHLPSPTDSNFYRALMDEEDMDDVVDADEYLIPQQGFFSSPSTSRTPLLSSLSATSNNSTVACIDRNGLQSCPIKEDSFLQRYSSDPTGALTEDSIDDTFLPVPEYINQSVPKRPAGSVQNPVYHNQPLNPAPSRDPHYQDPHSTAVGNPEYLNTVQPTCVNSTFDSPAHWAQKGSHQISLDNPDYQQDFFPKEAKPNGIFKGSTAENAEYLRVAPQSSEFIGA
Chain of EGFR (A767_dupASV) expressing Ba/F3 stable cell line (P00533 with tags, fused parts or gaps DUP767-769): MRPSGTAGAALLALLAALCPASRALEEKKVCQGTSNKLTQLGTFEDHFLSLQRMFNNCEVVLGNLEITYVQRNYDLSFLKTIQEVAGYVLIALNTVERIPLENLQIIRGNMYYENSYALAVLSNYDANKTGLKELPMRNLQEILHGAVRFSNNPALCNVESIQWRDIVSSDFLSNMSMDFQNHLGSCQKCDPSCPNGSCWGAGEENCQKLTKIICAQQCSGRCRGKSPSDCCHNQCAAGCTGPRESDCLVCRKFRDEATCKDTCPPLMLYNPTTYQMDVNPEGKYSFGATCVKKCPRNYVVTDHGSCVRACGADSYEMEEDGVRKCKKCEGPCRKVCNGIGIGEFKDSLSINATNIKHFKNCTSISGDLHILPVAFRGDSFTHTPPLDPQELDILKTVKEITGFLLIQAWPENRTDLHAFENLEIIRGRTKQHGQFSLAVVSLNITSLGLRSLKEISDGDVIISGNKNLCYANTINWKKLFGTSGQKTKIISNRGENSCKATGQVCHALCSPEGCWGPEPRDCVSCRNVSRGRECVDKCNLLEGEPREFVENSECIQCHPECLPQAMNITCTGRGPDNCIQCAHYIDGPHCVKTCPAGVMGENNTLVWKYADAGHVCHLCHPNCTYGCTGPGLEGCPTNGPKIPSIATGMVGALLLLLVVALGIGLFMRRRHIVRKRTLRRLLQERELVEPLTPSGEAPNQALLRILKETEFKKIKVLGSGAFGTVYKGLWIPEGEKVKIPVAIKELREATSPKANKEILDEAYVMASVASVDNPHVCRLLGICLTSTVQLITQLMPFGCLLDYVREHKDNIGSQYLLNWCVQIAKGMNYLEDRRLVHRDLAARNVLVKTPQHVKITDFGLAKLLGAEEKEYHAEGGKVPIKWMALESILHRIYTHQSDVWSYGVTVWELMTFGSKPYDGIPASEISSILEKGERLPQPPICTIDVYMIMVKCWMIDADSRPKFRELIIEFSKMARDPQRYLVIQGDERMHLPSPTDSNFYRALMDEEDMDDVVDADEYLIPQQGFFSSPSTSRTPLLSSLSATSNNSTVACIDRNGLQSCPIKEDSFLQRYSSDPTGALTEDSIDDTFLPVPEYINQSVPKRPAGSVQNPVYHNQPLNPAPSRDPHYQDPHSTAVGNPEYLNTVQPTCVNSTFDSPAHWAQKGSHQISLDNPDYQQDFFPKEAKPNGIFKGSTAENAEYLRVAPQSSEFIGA
Chain of HER2 (A775_G776insYVMA) expressing Ba/F3 stable cell line (P04626 with tags, fused parts or gaps DUP772-775): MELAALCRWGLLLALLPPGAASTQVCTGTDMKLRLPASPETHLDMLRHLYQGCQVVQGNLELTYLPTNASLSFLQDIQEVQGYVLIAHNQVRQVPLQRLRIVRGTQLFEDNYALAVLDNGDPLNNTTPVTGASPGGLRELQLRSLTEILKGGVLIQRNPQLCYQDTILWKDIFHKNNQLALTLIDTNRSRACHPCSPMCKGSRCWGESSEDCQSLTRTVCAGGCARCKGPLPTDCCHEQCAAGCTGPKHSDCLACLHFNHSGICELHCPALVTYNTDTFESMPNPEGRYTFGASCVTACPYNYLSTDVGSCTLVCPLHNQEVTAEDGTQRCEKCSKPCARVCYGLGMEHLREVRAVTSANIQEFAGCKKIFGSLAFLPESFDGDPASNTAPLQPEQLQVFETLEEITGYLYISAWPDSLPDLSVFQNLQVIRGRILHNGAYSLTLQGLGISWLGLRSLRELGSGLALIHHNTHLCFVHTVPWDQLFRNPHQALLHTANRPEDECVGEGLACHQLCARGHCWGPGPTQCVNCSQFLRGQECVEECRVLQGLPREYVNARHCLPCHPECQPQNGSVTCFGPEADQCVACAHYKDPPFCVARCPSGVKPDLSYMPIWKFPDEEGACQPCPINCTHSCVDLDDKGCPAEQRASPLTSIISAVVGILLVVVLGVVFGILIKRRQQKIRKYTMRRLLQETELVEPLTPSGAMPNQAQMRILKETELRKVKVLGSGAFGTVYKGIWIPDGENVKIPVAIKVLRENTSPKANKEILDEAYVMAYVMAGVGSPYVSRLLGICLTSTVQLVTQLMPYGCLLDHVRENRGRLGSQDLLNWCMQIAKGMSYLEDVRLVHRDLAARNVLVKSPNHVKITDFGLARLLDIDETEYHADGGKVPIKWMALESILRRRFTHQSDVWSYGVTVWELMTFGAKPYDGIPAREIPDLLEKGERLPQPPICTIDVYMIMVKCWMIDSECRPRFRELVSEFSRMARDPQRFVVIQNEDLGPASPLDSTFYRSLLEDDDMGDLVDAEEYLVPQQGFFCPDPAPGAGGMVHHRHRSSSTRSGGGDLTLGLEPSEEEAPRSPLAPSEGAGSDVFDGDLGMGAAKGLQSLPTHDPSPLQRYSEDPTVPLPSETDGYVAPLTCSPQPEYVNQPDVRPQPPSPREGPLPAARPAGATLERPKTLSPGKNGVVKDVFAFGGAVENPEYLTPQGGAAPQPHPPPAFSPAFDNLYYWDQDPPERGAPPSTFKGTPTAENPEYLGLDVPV

Row | SMILES | GI50 [1] [nM] | GI50 [2] [nM] | IC50 (A431 cells; [4]) [nM] | GI50 [3] [nM] | IC50 (A431 cells; [5]) [nM]
1 | C=CC(=O)Nc1ccc(F)c(Nc2nc(Nc3cnn(C)c3)ncc2NC(=O)c2ccccc2)c1 [Compound 50, N-(4-((5-acrylamido-2-fluorophenyl)amino)-2-((1-methyl-1H-pyrazol-4-yl)amino)pyrimidin-5-yl)benzamide] | 1730 | 1470 | > 10000 | 8620 | 
2 | CN(C)C/C=C/C(=O)Nc1ccc(Cl)c(Nc2nc(Nc3cnn(C)c3)ncc2Cl)c1 [Compound 9, (E)-N-(4-chloro-3-((5-chloro-2-((1-methyl-1H-pyrazol-4-yl)amino)pyrimidin-4-yl)amino)phenyl)-4-(dimethylamino)but-2-enamide] | 9480 | > 10000 | 8020 | 7490 | 
3 | C=CC(=O)Nc1ccc(F)c(Nc2nc(Nc3cnn(C)c3)ncc2-c2cccc(NC(C)=O)c2)c1 [Compound 59, N-(3-((5-(3-acetamidophenyl)-2-((1-methyl-1H-pyrazol-4-yl)amino)pyrimidin-4-yl)amino)-4-fluorophenyl)acrylamide] | > 10000 | > 10000 | > 10000 | ≥ 10000 | 
4 | C=CC(=O)Nc1ccc(OC)c(Oc2nc(Nc3cnn(C4CCN(C)CC4)c3)ncc2Cl)c1 [Compound 170, N-(3-((5-chloro-2-((1-(1-methylpiperidin-4-yl)-1H-pyrazol-4-yl)amino)pyrimidin-4-yl)oxy)-4-methoxyphenyl)acrylamide] | > 10000 | > 10000 | > 10000 | 9710 | 
5 | C=CC(=O)Nc1cccc(Nc2nc(Nc3cnn(C)c3)ncc2-c2ccc(CC(F)(F)F)cc2)c1 [Compound 293, N-(3-((2-((1-methyl-1H-pyrazol-4-yl)amino)-5-(4-(2,2,2-trifluoroethyl)phenyl)pyrimidin-4-yl)amino)phenyl)acrylamide] | 21 | 28 |  | 110 | 4
6 | C=CC(=O)Nc1ccc(F)c(Oc2nc(Nc3cnn(CCO)c3)ncc2Cl)c1 [Compound 167, N-(3-((5-chloro-2-((1-(2-hydroxyethyl)-1H-pyrazol-4-yl)amino)pyrimidin-4-yl)oxy)-4-fluorophenyl)acrylamide] | 2150 | 1330 | > 10000 | 1750 | 
7 | C=CC(=O)Nc1ccc(F)c(Nc2nc(Nc3cn(C)nc3C(F)(F)F)ncc2-c2ccc(C(F)(F)F)cc2)c1 [Compound 146, N-(4-fluoro-3-((2-((1-methyl-3-(trifluoromethyl)-1H-pyrazol-4-yl)amino)-5-(4-(trifluoromethyl)phenyl)pyrimidin-4-yl)amino)phenyl)acrylamide trifluoroacetate] | 342 | 279 | 274 | 6130 | 
8 | CN(C)C/C=C/C(=O)Nc1ccc(C#Cc2ccccc2)c(Nc2nc(Nc3cnn(C)c3)ncc2Cl)c1 [Compound 179, (E)-N-(3-((5-chloro-2-((1-methyl-1H-pyrazol-4-yl)amino)pyrimidin-4-yl)amino)-4-(phenylethynyl)phenyl)-4-(dimethylamino)but-2-enamide] | > 10000 | > 10000 | > 10000 | 4030 | 
9 | C=CC(=O)Nc1cc(Br)cc(Nc2nc(Nc3cnn(C)c3)ncc2-c2ccc(CC(F)(F)F)cc2)c1 [Compound 302, N-(3-bromo-5-((2-((1-methyl-1H-pyrazol-4-yl)amino)-5-(4-(2,2,2-trifluoroethyl)phenyl)pyrimidin-4-yl)amino)phenyl)acrylamide] | 99 | 67 |  | 653 | 12
10 | C=CC(=O)Nc1cc(F)cc(Nc2nc(Nc3cnn(C)c3)ncc2-c2ccc(C(F)(F)F)cc2)c1 [Compound 239, N-(3-fluoro-5-((2-((1-methyl-1H-pyrazol-4-yl)amino)-5-(4-(trifluoromethyl)phenyl)pyrimidin-4-yl)amino)phenyl)acrylamide] | 36 | 91 |  | 251 | 229
11 | C=CC(=O)Nc1ccc(F)c(Nc2nc(Nc3cnn(C)c3)ncc2-c2cccc3ccccc23)c1 [Compound 136, N-(4-fluoro-3-((2-((1-methyl-1H-pyrazol-4-yl)amino)-5-(naphthalen-1-yl)pyrimidin-4-yl)amino)phenyl)acrylamide trifluoroacetate] | 106 | 299 | 40 | 412 | 
12 | C=CC(=O)Nc1cccc(Oc2nc(Nc3cnn(C)c3)nnc2Cl)c1 [Compound 157, N-(3-((6-chloro-3-((1-methyl-1H-pyrazol-4-yl)amino)-1,2,4-triazin-5-yl)oxy)phenyl)acrylamide] | > 10000 | > 10000 | > 10000 | 3660 | 
13 | COC/C=C/C(=O)Nc1ccc(F)c(Nc2nc(Nc3cnn(C)c3)ncc2Cl)c1 [Compound 6, (E)-N-(3-((5-chloro-2-((1-methyl-1H-pyrazol-4-yl)amino)pyrimidin-4-yl)amino)-4-fluorophenyl)-4-methoxybut-2-enamide] | > 10000 | > 10000 | > 10000 | 9010 | 
14 | CN(C)C/C=C/C(=O)Nc1ccc(F)c(Nc2nc(Nc3cnn(C4CCC(O)CC4)c3)ncc2Cl)c1 (stereo not drawn) [Compound 5, (E)-N-(3-((5-chloro-2-((1-(4-hydroxycyclohexyl)-1H-pyrazol-4-yl)amino)pyrimidin-4-yl)amino)-4-fluorophenyl)-4-(dimethylamino)but-2-enamide] | 5580 | 7380 | > 10000 | 4280 | 
15 | C=CC(=O)Nc1ccc(F)c(Nc2nc(Nc3cn(CCN(C)C)nc3Cl)ncc2-c2ccc(Br)cc2)c1 [Compound 208, N-(3-((5-(4-bromophenyl)-2-((3-chloro-1-(2-(dimethylamino)ethyl)-1H-pyrazol-4-yl)amino)pyrimidin-4-yl)amino)-4-fluorophenyl)acrylamide] | 76 | 121 |  | 402 | 46
16 | C=CC(=O)Nc1ccc(F)c(Nc2nc(Nc3cnn(C)c3)ncc2NS(=O)(=O)c2ccccc2)c1 [Compound 51, N-(4-fluoro-3-((2-((1-methyl-1H-pyrazol-4-yl)amino)-5-(phenylsulfonamido)pyrimidin-4-yl)amino)phenyl)acrylamide] | > 10000 | > 10000 | > 10000 | > 10000 | 
17 | CN(C)C/C=C/C(=O)Nc1ccc(F)c(-c2nc(Nc3cnn(C)c3)ncc2Cl)c1 [Compound 160, (E)-N-(3-(5-chloro-2-((1-methyl-1H-pyrazol-4-yl)amino)pyrimidin-4-yl)-4-fluorophenyl)-4-(dimethylamino)but-2-enamide] | > 10000 | > 10000 | > 10000 | > 10000 | 
18 | C=CC(=O)Nc1ccc(F)c(Nc2nc(Nc3cnn(CCO)c3)ncc2-c2ccc(Br)cc2)c1 [Compound 206, N-(3-((5-(4-bromophenyl)-2-((1-(2-hydroxyethyl)-1H-pyrazol-4-yl)amino)pyrimidin-4-yl)amino)-4-fluorophenyl)acrylamide] | 35 | 44 |  | 120 | 36
19 | C=CC(=O)Nc1ccc(F)c(Nc2nc(Nc3cnn(C)c3)ncc2-c2ccc(OC)nc2)c1 [Compound 86, N-(4-fluoro-3-((5-(6-methoxypyridin-3-yl)-2-((1-methyl-1H-pyrazol-4-yl)amino)pyrimidin-4-yl)amino)phenyl)acrylamide] | 36 | 39 | 49 | 185 | 
20 | C=CC(=O)Nc1cccc(F)c1CNc1nc(Nc2cnn(C)c2)ncc1Cl [Compound 173, N-(2-(((5-chloro-2-((1-methyl-1H-pyrazol-4-yl)amino)pyrimidin-4-yl)amino)methyl)-3-fluorophenyl)acrylamide] | 9780 | > 10000 | > 10000 | 2000 | 
21 | C=CC(=O)Nc1ccc(F)c(Nc2nc(Nc3cnn(CC(C)(C)O)c3)ncc2-c2ccc(C(F)(F)F)cc2)c1 [Compound 240, N-(4-fluoro-3-((2-((1-(2-hydroxy-2-methylpropyl)-1H-pyrazol-4-yl)amino)-5-(4-(trifluoromethyl)phenyl)pyrimidin-4-yl)amino)phenyl)acrylamide] | 395 | 861 |  | 2010 | 441
22 | [2H]C([2H])=CC(=O)Nc1ccc(F)c(Nc2nc(Nc3cn(C)nc3Cl)ncc2-c2ccc(C(F)(F)F)cc2)c1 [Compound 249, N-(3-((2-((3-chloro-1-methyl-1H-pyrazol-4-yl)amino)-5-(4-(trifluoromethyl)phenyl)pyrimidin-4-yl)amino)-4-fluorophenyl)acrylamide-3,3-d2] | 101 | 261 |  | 1050 | 123
23 | C=CC(=O)Nc1cc(F)cc(Nc2nc(Nc3cnn(C)c3)ncc2-c2ccc(CC(F)(F)F)cc2)c1 [Compound 295, N-(3-fluoro-5-((2-((1-methyl-1H-pyrazol-4-yl)amino)-5-(4-(2,2,2-trifluoroethyl)phenyl)pyrimidin-4-yl)amino)phenyl)acrylamide] | 34 | 38 |  | 210 | 6
24 | C=CC(=O)Nc1ccc(F)c(Nc2nc(Nc3cnn(C)c3)ncc2C#Cc2ccccc2)c1 [Compound 161, N-[4-fluoro-3-({2-[(1-methyl-1H-pyrazol-4-yl)amino]-5-(2-phenylethynyl)pyrimidin-4-yl}amino)phenyl]prop-2-enamide] | 288 | 289 | > 10000 | 897 | 
